We go through 16 molecules from ChEMBL document CHEMBL3352351 (Bioorg Med Chem, 2014).

What is called pIC50 is −log10 of the IC50, conventionally taken in molar units. Low values mean a high IC50, high ones a low IC50.

Assay [1] is described as follows: Cytotoxicity against human MKN45 cells after 72 hrs by MTT assay. The note with it: MKN-45, 72 h. For orientation: Tetrazolium assays rely on reduction of a dye to a coloured formazan, in cell work by metabolically active cells.
Another assay has as its system HT-29. Description: Cytotoxicity against human HT-29 cells after 72 hrs by MTT assay. The conditions noted are these: HT-29, 72 h.
The test system of the next assay is A549. Put plainly: Cytotoxicity against human A549 cells after 72 hrs by MTT assay. The conditions noted are these: A549, 72 h.
Assay [2] is described as follows: Cytotoxicity against human U87MG cells after 72 hrs by MTT assay. Format: functional, cell-based, U-87MG ATCC. The note with it: U-87 MG.

SMILES strings stand for the structures. pIC50: −log10 of the molar value.

Take `COc1cc2c(Oc3ccc(NC(=O)c4nnn(-c5ccccc5C)c4C)cc3F)ccnc2cc1OCCCN1CCCC1`: the pIC50 in assay [1] is 6.57; with HT-29 it was 6.35; with A549, 6.42; in assay [2], 5.80.
For the molecule `COc1cc2c(Oc3ccc(NC(=O)c4nnn(-c5ccccc5)c4C)cc3F)ccnc2cc1OCCCN1CCCC1`, the pIC50 in assay [1] was 7.40; in the assay on HT-29, 6.89; with A549 it was 7.05; in assay [2], 6.00.
For the molecule `COc1cc2c(Oc3ccc(NC(=O)c4nnn(-c5ccccc5C(F)(F)F)c4C)cc3F)ccnc2cc1OCCCN1CCCC1`, the pIC50 was 7.15 in assay [1], 6.70 in the assay with HT-29, 6.80 with A549 and 5.97 in assay [2].
On to `COc1cc2c(Oc3ccc(NC(=O)c4nnn(-c5ccc(C)cc5)c4C(F)(F)F)cc3F)ccnc2cc1OCCCN1CCCC1`, for which the results for the pIC50 (in assay [1]; in the assay with HT-29; in the assay on A549) were 6.68, 6.26 and 6.43, respectively.
In the case of `COc1cc2c(Oc3ccc(NC(=O)c4nnn(-c5ccc(F)c(F)c5)c4C(F)(F)F)cc3F)ccnc2cc1OCCCN1CCCC1`, the pIC50 in assay [1] was 7.15; in the assay with HT-29, 6.74; in the assay with A549 it was 6.77; in assay [2], 5.97.
For the molecule `COc1ccc(-n2nnc(C(=O)Nc3ccc(Oc4ccnc5cc(OCCCN6CCCC6)c(OC)cc45)c(F)c3)c2C(F)(F)F)cc1`, the values for the negative-log IC50 (pIC50) (in assay [1]; in the assay on HT-29; in the assay with A549) were 6.23, 5.99 and 6.25, respectively.
`COc1cc2c(Oc3ccc(NC(=O)c4nnn(-c5ccccc5C)c4C)cc3F)ccnc2cc1OCCCN1CCOCC1`: the pIC50 is 6.66 in assay [1], 6.33 with HT-29, 6.49 in the assay on A549 and 5.82 in assay [2].
Taken in the same sequence, the figures for `COc1cc2c(Oc3ccc(NC(=O)c4nnn(-c5ccccc5)c4C)cc3F)ccnc2cc1OCCCN1CCOCC1` were 7.22, 6.74, 6.85 and 5.97.
Turning to `COc1cc2c(Oc3ccc(NC(=O)c4nnn(-c5ccccc5C(F)(F)F)c4C)cc3F)ccnc2cc1OCCCN1CCOCC1`, the pIC50 was 7.00 in assay [1], 6.70 in the assay on HT-29, 6.74 in the assay on A549 and 6.00 in assay [2].
On the same counts, the results for `COc1cc2c(Oc3ccc(NC(=O)c4nnn(-c5ccc(F)cc5)c4C(F)(F)F)cc3F)ccnc2cc1OCCCN1CCOCC1` are 7.22, 6.85, 6.89 and 5.97.
Turning to `COc1cc2c(Oc3ccc(NC(=O)c4nnn(-c5ccc(C)cc5)c4C(F)(F)F)cc3F)ccnc2cc1OCCCN1CCOCC1`, the pIC50 in assay [1] is 6.21; with HT-29 it was 6.24; with A549, 6.46; in assay [2], 5.57.
On the same counts, the results for `COc1cc2c(Oc3ccc(NC(=O)c4nnn(-c5ccccc5C(F)(F)F)c4C(F)(F)F)cc3F)ccnc2cc1OCCCN1CCOCC1` are 7.05, 6.64, 6.68 and 5.94.
With `COc1cc2c(Oc3ccc(NC(=O)c4nnn(-c5ccc(F)c(F)c5)c4C(F)(F)F)cc3F)ccnc2cc1OCCCN1CCOCC1`, the pIC50 in assay [1] is 7.30; in the assay on HT-29, 6.64; with A549, 6.82; in assay [2], 5.95.
Taken in the same sequence, the figures for `COc1ccc(-n2nnc(C(=O)Nc3ccc(Oc4ccnc5cc(OCCCN6CCOCC6)c(OC)cc45)c(F)c3)c2C(F)(F)F)cc1` were 6.17, 5.97, 6.19 and 5.62.
Turning to `COc1cc2c(Oc3ccc(NC(=O)c4nnn(-c5cccc(Br)c5)c4C(F)(F)F)cc3F)ccnc2cc1OCCCN1CCC(C)CC1`, the pIC50 in assay [1] is 6.92; with HT-29, 6.42; in the assay with A549 it was 6.46.
On the same counts, the results for `COc1ccc(-n2nnc(C(=O)Nc3ccc(Oc4ccnc5cc(OCCCN6CCN(C)CC6)c(OC)cc45)c(F)c3)c2C(F)(F)F)cc1` are 6.48, 5.66 and 5.91.
